According to EP2929785A1, “A PLA inhibitor for inhibition of fat absorption” (PAT GmbH, priority 2014, dated 2015):

Key:
iPLA2ß = molecular target: T1, iPLA2ß (Homo sapiens, UniProt O60733); assay: PLA2 activity in DRM-PM fractions of HepG2 cells; format: biochemical; details: DRM-PM fractions after 1-h treatment; dose-dependent
T1 construct: PLA2 activity in DRM-PM fractions isolated from HepG2 cells; endogenous in cells; host or cells: HepG2 (DRM-PM fraction)
T1 sequence (O60733 1-806): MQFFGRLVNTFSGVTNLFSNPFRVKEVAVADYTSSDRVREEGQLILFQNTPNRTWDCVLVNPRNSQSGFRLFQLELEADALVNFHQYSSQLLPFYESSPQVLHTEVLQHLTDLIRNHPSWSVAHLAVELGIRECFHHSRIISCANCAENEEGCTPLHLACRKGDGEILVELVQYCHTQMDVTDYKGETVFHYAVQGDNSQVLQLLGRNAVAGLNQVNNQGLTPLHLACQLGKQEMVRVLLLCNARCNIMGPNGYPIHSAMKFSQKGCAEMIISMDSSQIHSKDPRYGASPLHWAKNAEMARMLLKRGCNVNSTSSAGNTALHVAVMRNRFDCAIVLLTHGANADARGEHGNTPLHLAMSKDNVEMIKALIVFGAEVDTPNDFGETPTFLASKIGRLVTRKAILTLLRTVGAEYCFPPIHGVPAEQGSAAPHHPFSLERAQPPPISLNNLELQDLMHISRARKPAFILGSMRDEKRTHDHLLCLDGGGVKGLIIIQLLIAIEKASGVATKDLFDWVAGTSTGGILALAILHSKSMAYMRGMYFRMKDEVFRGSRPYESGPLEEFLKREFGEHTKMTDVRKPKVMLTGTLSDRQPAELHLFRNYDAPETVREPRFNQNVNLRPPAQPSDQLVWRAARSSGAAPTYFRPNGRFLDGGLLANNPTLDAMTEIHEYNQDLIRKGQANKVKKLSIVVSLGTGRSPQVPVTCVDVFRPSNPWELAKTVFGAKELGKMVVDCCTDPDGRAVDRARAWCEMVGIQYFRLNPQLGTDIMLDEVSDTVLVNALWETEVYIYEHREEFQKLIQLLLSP
Protocol: Detergent-resistant PM (DRM-PM) and non-DRM-PM fractions were isolated and characterized as previously described (Pohl J et al. Mol Biol Cell. 2005; 16: 24-31). Subcellular membrane fractions were prepared by centrifugation at 100,000 g for 1 h to obtain homogenate pellets. Nuclear extracts were obtained by centrifugation at 500 g for 5 min. Pellets were washed and resuspended in a buffer solution containing […] (pH 7.4), 100 mM NaCl, and 0.1 mM EDTA (Marzluff WF et al. Meth Cell Biol. 1987; 317-331)). The protein concentration was determined by the Bradford method (Bio- Rad, Munich, Germany).
PLA2 activity (µmoles LPC/mg protein/h) was determined by incubating samples with arachidonoyl thio-PC (62240; Cayman, Tallin, Estonia) for 1 h at 25°C in a Ca2+ -free buffer (Bhat MK et al. Biochim Biophys Act. 1993; 1166: 244-250). The reaction was terminated by adding 5,5-dithio-bis-2-nitrobenzoic acid and the absorbance at 405 nm was measured.

cytosolic LPC = assay: Cytosolic LPC concentration in HepG2 cells; format: cell-based, human
Protocol: LPC concentration in cytosolic supernatants was measured as previously described (Kishimoto T et al. Clin. Biochem. 2002; 35: 411-416).

p-JNK1 = assay: Cytosolic p-JNK1 levels in HepG2 cells (western blotting); format: cell-based, human
Protocol: Immunoblotting was performed according to a standard protocol as set out in Sun Q., et al. Biol Med (Maywood). 2012; 237: 178-185. The following primary antibodies to human proteins were used: mouse a-phosphorylated c-Jun N-terminal kinase 1 (p-JNK1) (88.20; Santa Cruz Biotechnology Inc., Heidelberg, Germany) at 1:500; mouse a-CD36 (1.BB.344; Santa Cruz Biotechnology Inc.) at 1:200; rabbit a-iPLA2ß (558-588; Abcam) at 1:500; mouse a-FABPPM (331-430; Abnova, Heidelberg, Germany) at 1:1,000; mouse a-FATP4 (1F4-1B10; Abnova) at 1:500; mouse a-caveolin-1 (C20B; Santa Cruz Biotechnology Inc.) at 1:500; mouse a-flotilin1 (F-3; Santa Cruz Biotechnology Inc.) at 1:500; and mouse a-ß-actin (AC-15; Sigma) at 1:100,000. Anti-mouse or -rabbit HRP (96910 and 107487, respectively; Dianova, Hamburg, Germany) were used at 1:10,000 dilution as secondary antibodies. To estimate the protein concentration a semi-quantitative densitometry was performed as described in Sun Q et al. (loc cit.).

[1] = tested on: retrogradely perfused mouse livers; assay: Single pass [3H]oleate extraction rates in retrogradely perfused mouse livers; format: in vivo, C57BL/6 mice; details: mice pretreated i.p. 23 mg/kg, 1 h
Protocol: Twelve-week-old female C57BL/6 mice were injected intraperitoneally with 1 ml UDCA-LPE [ChemCon, Freiburg, Germany] (Chamulitrat W. et al. Hepatology. 2009; 50: 143-154) at 23 mg/kg or phosphate-buffered saline (PBS) as a control with 5% Tween 80. […] Retrograde perfusion of oxygenized 100 µM albumin (A4503, Sigma, Munich, Germany) in PBS was performed at 37°C and a flow rate of 4 ml/min, with the perfusate collected from the opened portal vein (Hoffmann MJ et al. Hepatology. 2012; 55: 1369-1378). After equilibration for 5 min, a 1 ml bolus of 200 µM [3H]oleate (Perkin Elmer, Rodgau, Germany) along with 100 µM [methyl-14 C]albumin (Biotrend, Cologne, Germany) or 100 µM [14C]sucrose (Perkin Elmer) was introduced through the stopcock and the perfusion was allowed to continue for 5 min. Outflow samples were collected every 15 s and single pass extraction rates were determined as previously described (Hoffmann MJ et al. Toxicol. Sciences. 1999; 49: 40-47).

PLA2 activity (iPLA2ß): suppression of PLA2 activity
IC50 (cytosolic LPC; 30 min treatment (Fig. 7), read-out: suppression of cytosolic LPC (IC50)): 47 µM
Substance: ursodeoxycholatelysophosphatidylethanolamide [UDCA-LPE]
cytosolic LPC (cytosolic LPC; UDCA-LPE 50 µM (Fig. 6), before treatment 8.0 ± 1.3): 3.5 ± 0.2 µmol/mg protein
pretreatment time achieving the threshold LPC concentration at which p-JNK1 began to decrease (p-JNK1; > 50 µM UDCA-LPE): > 30 min
pretreatment concentration achieving the threshold LPC concentration at which p-JNK1 began to decrease (p-JNK1; for > 30 min): > 50 µM
cumulative proportion of the [3H]oleate extracted ([1]; 200 µM [3H]oleate:albumin (2:1)): 0.30 ± 0.03
inhibition of fatty acid influx ([1]; vs controls): 34%
